Where “and” joins values, the source holds several entries; their conditions need not be identical. Identical values can stand only once. Residues, ends and D or L forms follow the SMILES beside them. No end group written: not given here.
Tests used:
[1] = system: tetanus toxoid-induced DTH reactions; design: species or system Balb/C mice; details: mouse, in vivo
[2] = system: sheep erythrocyte (SRBC)-induced DTH reactions; test: Sheep erythrocyte (SRBC)-induced DTH, footpad volume; format: in vivo, Balb/C mice; details: indomethacin 1.0 mg/kg, day 4; positive control
[3] = system: carrageenan-induced inflammation; test: Carrageenan-induced footpad edema; format: in vivo, Balb/C mice; details: 10 mg/kg s.c. 24 hours prior to carrageenan
Method: In order to examine the ability of pentigetide to inhibit carrageenan-induced inflammation, female Balb/C mice were injected with 0.025 ml of 1.0% carrageenan solution (type lx carrageenan: Sigma No. C-1013, Lot No. 86F-0698) or saline in the right hind footpad 5 minutes after intravenous tail vein injection of 0.2 ml pentigetide (1.0 mg/kg) or saline solution. Indomethacin (10 mg/kg was used as a positive control and was administered by subcutaneous injection 24 hours prior to carrageenan injection. Footpad volumes were measured using a Buxco plethysmograph over a 6 hour period. Pentigetide produced substantial inhibition of carrageenan-induced inflammation when compared to saline control animals.

[4] = system: lymphoblastoid tissue culture cells; details: two trials; U.S. Pat. No. 4,161,522; cited from earlier work
[5] = system: immune complex-mediated ulcerative colitis; test: Immune complex-induced ulcerative colitis model (formalin + IgG immune complexes); format: in vivo, BKA mice; details: prednisolone 5.0 mg/kg i.p.
Method: A mouse model of intestinal inflammation was employed wherein the efficacy of pentigetide in reducing inflammation induced by formalin and complementfixing lgG immune complexes was measured. This model is particularly useful as a model of human ulcerative colitis and shares many clinical and histological functions of the human disease including sensitivity to glucocorticoids, sulfasalazine and 5-aminosalicylic acid (see L. P. Walsh, et al., British J. Pharm. 91:294 (1987); A. Blackham, et al., British J. Pharm. 89:694 (1986); L. D. Walsh and I. J. Zeitlin, British J. Pharm. 92:741 (1987)). The mouse model of intestinal inflammation used in these studies is induced by the exposure of the animals to chemicals which are known to trigger inflammatory processes in both animals and humans. […]
Colonic tissue water content was determined by tissue weight loss on drying of colonic tissues. […]
The response to immune complex alone was determined quantitatively by subtracting the mean value in group B from the mean value in group C. An estimate of the percentage reduction in this response produced by the drug was calculated as: [formula] […] Statistical significance was determined using the non-parametric Mann-Whitney U-test. […]

[6] = system: immunoglobulin Fc receptors; details: U.S. Pat. No. 4,628,045; cited from earlier work
[7] = system: chronic idiopathic urticaria; details: human, in vivo

## COc1ccc2c(c1)c(CC(=O)O)c(C)n2C(=O)c1ccc(Cl)cc1 [Indomethacin, indomethacin]
[1]
  inhibition (footpad swelling): 45%
[2]
  inhibition (footpad swelling): 43%
[3]; 1.0 hours after carrageenan injection
  Percent Inhibition: -35%
[3]; 2.0 hours after carrageenan injection
  Percent Inhibition: -60%
[3]; 4.0 hours after carrageenan injection
  Percent Inhibition: -39%
[3]; 6.0 hours after carrageenan injection
  Percent Inhibition: -47%

## Asn-Ser-Asn-Pro-Arg (NSNPR; printed: Asn-Ser-Asn-Pro-Arg)
[4]
  activity in blocking binding of IgE to lymphoblastoid tissue culture cells: lower activity

## C[C@]12C=CC(=O)C=C1CC[C@@H]1[C@@H]2[C@@H](O)C[C@@]2(C)[C@H]1CC[C@]2(O)C(=O)CO [prednisolone]
[5]; three days prior and daily thereafter, p<0.01
  reduction of colonic edema: 86.2%
[5]; p<0.001
  reduction of colonic edema (in the colitic sign score paragraph): 93.8%

## Asn-Ser-Asp-Pro-Arg (NSDPR; printed: Asn-Ser-Asp-Pro-Arg)
[4]
  activity in blocking binding of IgE to lymphoblastoid tissue culture cells: lower activity

## Asp-Ser-Glu-Pro-Arg (DSEPR; printed: Asp-Ser-Glu-Pro-Arg)
[6]
  blocking of immune complex binding to immunoglobulin Fc receptors: capable of blocking immune complex binding

## [-Cys-Ala-Asn-Ser-Asn-Pro-Arg]2 (CANSNPR; also: dimer)
[4]
  activity in blocking binding of IgE to lymphoblastoid tissue culture cells: 9% and 12%

## N=C(N)NCCC[C@H](NC(=O)[C@@H]1CCCN1C(=O)[C@H](CC(=O)O)NC(=O)[C@H](CO)NC(=O)[C@@H](N)CC(=O)O)C(=O)O [pentigetide, Asp-Ser-Asp-Pro-Arg] (H-DSDPR-OH)
[7]
  side effects: did not experience any side effects

Reference: US5912233A, “Methods and peptides for the treatment of non-IgE-mediated diseases” (Dura Pharmaceuticals, Inc., priority 1995, dated 1999)
